From article PMC9318536, “Novel Cyclic Peptides for Targeting EGFR and EGRvIII Mutation for Drug Delivery” (Pharmaceutics, 2022)
“Also recorded” adds a separate entry of the source. Read-outs that look alike come from different tables or passages of the source. Marks after values point to notes of the source that are not given here. Positions of bridges follow the written chain, without caps; N, C: chain ends. Residues, ends and D or L forms follow the SMILES beside them. No end group written: not given here. *: point of attachment. Camptothecin(20S-OCO) = CC[C@@]1(OC(=O)*)C(=O)OCc2c1cc1n(c2=O)Cc2cc3ccccc3nc2-1; GABA = NCCCC(=O)O

How the values were obtained:
DKMG cells = assay: XTT cytotoxicity of peptides, peptide-CPT conjugates and CPT on DKMG cells; assay type: cell-based; conditions: for cell viability relative to control untreated cells (IC50 could not be calculated) / IC50 / effect on cell viability (in words): XTT; for IC50: non-linear regression, mean ± SD, triplicate; for effect on cell viability (in words): 24 h pre-incubation protocol
Method: (§1) Cell growth in the presence of PDCs was measured by a commercial XTT assay kit (Cell Proliferation Kit, XTT based; Sartorius, Israel). The cells were seeded in 96-well plates (10^4 cells/well) and incubated overnight in a complete growth medium. They were then washed and re-cultured in 100 µL of fresh complete medium containing various concentrations of free drugs or PDCs, for 24, 48, and 72 h. The XTT solution was added to each well and the plate was further incubated for 2–3 h at 37 °C. The optical densities in the wells were measured at both 480 and 680 nm using a TECAN Infinite M200 ELISA reader. All tests were performed in triplicate, and each experiment was repeated three times.
(§2) The cytotoxicity of the PDCs was tested against H1299 and DKMG cells using two protocols. In the first protocol, cells were incubated in a complete medium containing a range of concentrations (0.5–50 µM) of P6, P9, P6-CPT, or P9-CPT for 6 h, after which, the medium was replaced with fresh, drug-free, complete medium, and the cells were cultured for an additional 24 h (designated as 6h24h) or 48 h (6h48h). In the second protocol, cells were exposed continuously to free drugs or PDCs for 24, 48, and 72 h. For each case, during the culture period, cell cytotoxicity was determined as described above and IC50 values were calculated.

H1299 cells = assay: XTT cytotoxicity of peptides, peptide-CPT conjugates and CPT on H1299 cells; conditions: for cell viability relative to control untreated cells (IC50 could not be calculated): H1299, XTT; for IC50: Homo sapiens
Method: as §1, §2

[1] = Drug release / PDC breakdown in complete growth medium; assay type: in vitro ADME; conditions: RPMI and DMEM complete growth media, 37 °C, 0–72 h, LC–MS, triplicate
Method: PDC breakdown rates were determined as described elsewhere. Briefly, peptide-FITC and peptide–CPT conjugates were incubated at 37 °C in 1 mL of DMEM or RPMI full-growth medium for […], 3, 7, 24, 48, and 72 h. At each time point, 10 µL of the sample was taken and mixed with 25 µL ACN/H20 (1:1, v/v.). The samples were centrifuged at 1400 rpm for 15 min. Supernatants were collected, filtered, and analyzed by liquid chromatography–mass spectrometry (LC–MS).
The release rates of CPT from P6-CPT and P9-CPT were measured in RPMI and DMEM complete growth media at 37 °C for 0, 0.5, 3, 7, 24, 48, and 72 h according to the procedure. The degradation of the conjugates and the CPT release were analyzed by LC–MS. […] The conjugates degraded with a half-life of 6–7 h (Figure 8).

EGFR on H1299 cells = molecular target: T1, EGFR on H1299 cells (Homo sapiens, UniProt P00533); assay: Competitive binding assay with EGF by FACS; assay type: cell-based; conditions: H1299, 2.5 µM FITC-labeled peptides with or without 80 nM EGF, 4 °C 1 h then 37 °C 15 min, duplicate
T1 construct: H1299, H1975, and DKMG cells were characterized by cell surface overexpression of EGFR; endogenous in cells; host or cells: H1299 cells (ATCC)
Method: H1299 and DKMG cell lines were cultured in a complete RPMI growth medium in a 6-well plate overnight, until 80% confluent. Pre-incubation was performed with a blocking buffer consisting of 5 mg/mL BSA in PBS, pH 7.4, at 4 °C for 30 min. Then, cells were washed twice in PBS and incubated with 2.5 µM of FITC-labeled peptides with or without 80 nM EGF at 4 °C for 1 h. The cells were then incubated for 15 min at 37 °C under 5% CO2 to allow for peptide internalization. The cells were washed twice by centrifugation at 265× g for 5 min and analyzed by flow cytometry.
Figure 3 Competitive uptake of P3, P4, P5, P6, P9, and P11 peptides by FACS. Fluorescence was measured for H1299 cells (30,000 cells) after incubation with (2.5 µM) P3–P6, P9, and P11 by FITC-labeled peptides in the absence or presence of 80 nM of the EGF protein. The experiments were performed in duplicate. For each sample, the mean ± SD is shown (** p < 0.01, *** p < 0.001).

[2] = 6 h exposure then 24 h drug-free medium (6h24h), 0.5–50 µM
[3] = H1299, first protocol (6 h preincubation, then up to 48 h), XTT

CC[C@@]1(O)C(=O)OCc2c1cc1n(c2=O)Cc2cc3ccccc3nc2-1 [CPT, camptothecin]
cell viability relative to control untreated cells (IC50 could not be calculated) (DKMG cells; [2]): >50% *
IC50 (DKMG cells; 6 h exposure then 48 h in drug-free medium (6h48h), 0.5–50 µM): 8.5 ± 1 µM
IC50 (DKMG cells; continuous exposure 24 h): 25 ± 1.3 µM
cell viability relative to control untreated cells (IC50 could not be calculated) (DKMG cells; continuous exposure 48 h): <50% **
cell viability relative to control untreated cells (IC50 could not be calculated) (DKMG cells; continuous exposure 72 h): <40% **
cell viability relative to control untreated cells (IC50 could not be calculated) (H1299 cells; [2]): >50% *
cell viability relative to control untreated cells (IC50 could not be calculated) (H1299 cells; continuous exposure 48 h): <45%
cell viability relative to control untreated cells (IC50 could not be calculated) (H1299 cells; continuous exposure 72 h): <15%
IC50 (H1299 cells; NCI-H1299): 6.7 ± 1.8 µM
IC50 (H1299 cells; NCI-H1299, 24 h): 54.8 ± 2 µM

CC[C@H](C)[C@@H]1NC(=O)[C@H](Cc2ccc(O)cc2)NC(=O)[C@H](CO)NC(=O)CNC(=O)[C@@H]2CCCN2C(=O)[C@H](C(C)C)NC(=O)[C@H](Cc2cnc[nH]2)NC(=O)[C@@H](NC(=O)CCCNC(=O)O[C@]2(CC)C(=O)OCc3c2cc2n(c3=O)Cc3cc4ccccc4nc3-2)CSSC[C@@H](C(N)=O)NC1=O [P6-CPT] ({Camptothecin(20S-OCO)-GABA}-CHVPGSYIC-NH2; disulfide 1-9)
half-life of conjugate degradation (CPT release) [1]: 6 to 7 h
cytotoxic effect (in words) (H1299 cells; [3]): exhibited cytotoxic effects after 48 h

CC[C@H](C)[C@@H]1NC(=O)[C@H](Cc2ccc(O)cc2)NC(=O)[C@H](CO)NC(=O)CNC(=O)[C@@H]2CCCN2C(=O)[C@H](C(C)C)NC(=O)[C@H](Cc2c[nH]cn2)NC(=O)[C@@H](N)CSSC[C@@H](C(=O)O)NC1=O [P6] (H-CHVPGSYIC-OH; disulfide 1-9)
competition of EGF with peptide uptake (EGFR on H1299 cells): better competition with EGF compared to P11
cytotoxic effect (in words) (H1299 cells): not toxic

CC[C@@]1(OC(=O)NCCCC(=O)N[C@H]2CSSC[C@@H](C(N)=O)NC(=O)[C@H](Cc3ccc(O)cc3)NC(=O)[C@H](CO)NC(=O)[C@H](CCC(N)=O)NC(=O)[C@H](CCSC)NC(=O)[C@H](C)NC(=O)[C@H](CC(N)=O)NC(=O)[C@H](C(C)C)NC2=O)C(=O)OCc2c1cc1n(c2=O)Cc2cc3ccccc3nc2-1 [P9-CPT] ({Camptothecin(20S-OCO)-GABA}-CVNAMQSYC-NH2; disulfide 1-9; C-terminus assumed)
IC50 compared to free CPT (DKMG cells; 6 h exposure then 48 h): four-fold higher
effect on cell viability (in words) (DKMG cells): did not affect cell viability
half-life of conjugate degradation (CPT release) [1]: 6 to 7 h
cytotoxic effect (in words) (H1299 cells; [3]): exhibited cytotoxic effects after 48 h

CSCC[C@@H]1NC(=O)[C@H](C)NC(=O)[C@H](CC(N)=O)NC(=O)[C@H](C(C)C)NC(=O)[C@@H](N)CSSC[C@@H](C(=O)O)NC(=O)[C@H](Cc2ccc(O)cc2)NC(=O)[C@H](CO)NC(=O)[C@H](CCC(N)=O)NC1=O [P9] (H-CVNAMQSYC-OH; disulfide 1-9)
effect on cell viability (in words) (DKMG cells): did not affect cell viability
competition of EGF with peptide uptake (EGFR on H1299 cells): EGF significantly competed; also recorded: better competition with EGF compared to P11
cytotoxic effect (in words) (H1299 cells): not toxic

CAQYTPGRC (disulfide 1-9) [P11]
competition of EGF with peptide uptake (EGFR on H1299 cells): EGF significantly competed
